Paper PMC5578999, “Novel quinolone chalcones targeting colchicine-binding pocket kill multidrug-resistant cancer cells by inhibiting tubulin activity and MRP1 function” (Scientific Reports, 2017)

Legend:
H69AR = assay: SRB cell viability, multidrug-resistant cells; assay type: cell-based; conditions: for IC50: Homo sapiens, H69AR
Method: (§1) Cell line authentication was carried out by Genetica DNA
(§2) Cell viability, com binational i ndex and cell synchronization
(§3) Cell viability and proliferation were ex amined using a s ulforhodamine B (SRB) assa y as […]
(§4) IC 50 values were calculat ed from si gmoidal dose-response cu rves gen erat ed b y at least two indepen dent ex periments , with each quadruplicate samples, using GraphPad Prism v.5.04 software (GraphPad Software, Inc, La J olla, CA). […]
(§5) (sham) or presence of compound(s). […]

[1] = Body and organ weights, side effects; conditions: CTR-17 30 mg/kg, CTR-20 30 mg/kg, paclitaxel 10 mg/kg; CD-1 or ATH490 strains
Method: Athymic mice engrafted with tumor cells were used to determine antitumor activity. […] When tumor size reached 5–6 mm in diameter (n = 4–5 per group), mice were randomly assigned into several groups and vehicle-treated or treated with drug(s). […] Animals were monitored for food and water consumption every day, and their body weights and tumor volumes were measured twice per week. Tumor volumes were measured with a digital caliper and were determined by the following formula: ½ length × width^2. Blood samples were collected via cardiac puncture and processed for ALT and AST measurements. The animals were then immediately euthanized by carbon dioxide. Tumors and vital organs (spleen, kidney, liver and lung) were harvested and fixed in 10% buffered formalin at 4 °C overnight before being processed for a paraffin embedding. The paraffin-embedded blocks were then sectioned to 4–5 µm thick. Each section was stained with haematoxylin and eosin (H&E).

purified porcine tubulin [2] = molecular target: T1, purified porcine tubulin (Sus scrofa, UniProt P02554); assay: Intrinsic tryptophan fluorescence quenching of tubulin; assay type: binding
T1 construct: purified porcine tubulin (T240, Cytoskeleton); purchased Cytoskeleton T240
T1 sequence (P02554 whole entry): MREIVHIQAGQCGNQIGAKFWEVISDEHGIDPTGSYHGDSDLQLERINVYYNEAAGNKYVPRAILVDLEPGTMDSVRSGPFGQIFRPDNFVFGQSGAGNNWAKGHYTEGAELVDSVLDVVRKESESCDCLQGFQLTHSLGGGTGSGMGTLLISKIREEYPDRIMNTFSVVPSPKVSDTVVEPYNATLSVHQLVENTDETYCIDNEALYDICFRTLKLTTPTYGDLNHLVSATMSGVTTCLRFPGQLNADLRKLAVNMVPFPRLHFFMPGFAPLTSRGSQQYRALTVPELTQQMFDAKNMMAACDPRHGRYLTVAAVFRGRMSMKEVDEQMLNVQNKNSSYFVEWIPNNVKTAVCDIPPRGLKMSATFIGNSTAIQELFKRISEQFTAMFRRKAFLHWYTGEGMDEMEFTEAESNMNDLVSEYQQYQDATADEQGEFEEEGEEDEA
T1 sequence (P02550 whole entry partner): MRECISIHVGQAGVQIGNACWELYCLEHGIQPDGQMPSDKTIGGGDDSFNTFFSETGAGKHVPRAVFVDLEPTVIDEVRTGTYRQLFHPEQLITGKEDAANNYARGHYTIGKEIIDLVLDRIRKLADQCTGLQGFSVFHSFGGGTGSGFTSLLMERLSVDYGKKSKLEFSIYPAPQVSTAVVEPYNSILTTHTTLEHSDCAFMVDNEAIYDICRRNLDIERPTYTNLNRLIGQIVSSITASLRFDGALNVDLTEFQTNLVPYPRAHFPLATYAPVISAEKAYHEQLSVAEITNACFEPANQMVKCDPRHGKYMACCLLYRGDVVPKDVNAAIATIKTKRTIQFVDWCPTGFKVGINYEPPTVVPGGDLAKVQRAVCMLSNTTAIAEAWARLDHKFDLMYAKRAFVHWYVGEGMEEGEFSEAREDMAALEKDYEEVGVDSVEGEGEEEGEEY
Method: A two-step extraction procedure was used to differentially extract tubulin heterodimers and microtubules from sham-treated cells or those treated with compounds as described previously. To determine the binding ability of CTR compounds to tubulin, the changes in the intrinsic tryptophan fluorescence of purified porcine tubulin (T240, Cytoskeleton) was measured as described previously. GraphPad Prism software was used to determine the dissociation constant of CTRs bound to tubulin, and the following formula was used: ∆F=∆Fmax×C/Kd+C Where, ΔF is the changes in the fluorescence intensity of the tubulin when bound by CTR; ΔFmax is the maximum change in the fluorescence intensity; C is compound concentration; and Kd is the dissociation constant of the compound. The experiment was repeated five times.

[3] = Serum ALT and AST, ATH490 mice; conditions: 30 days, paclitaxel 10 mg/kg, CTR 30 mg/kg, combinations 5 + 15 mg/kg; for ALT: sham 64.03± 4.04; for AST: sham 112.46 ± 4.74
Method: For paclitaxel treatments, 40 mg/ml stock solution of paclitaxel (Sigma, MO) was prepared in DMSO. […] Alanine transaminase (ALT, SUP6001-c) and Aspartate transaminase (AST, SUP6002-c) color endpoint assay kits were purchased from ID Labs (London, Ontario, Canada).
Athymic mice engrafted with tumor cells were used to determine antitumor activity. […] When tumor size reached 5–6 mm in diameter (n = 4–5 per group), mice were randomly assigned into several groups and vehicle-treated or treated with drug(s). […] Animals were monitored for food and water consumption every day, and their body weights and tumor volumes were measured twice per week. Tumor volumes were measured with a digital caliper and were determined by the following formula: ½ length × width^2. Blood samples were collected via cardiac puncture and processed for ALT and AST measurements. The animals were then immediately euthanized by carbon dioxide.
carri ed out using GraphP ad Prism software. All values are pr esented as mean±S.E.M.
Comparison between each group was made b y p values determined using one-wa y ANOVA. The
p value of <0.05 is consi dered to be statisticall y significant. Each organ weight was norm alized
with total body mass (BM) as expressed in %.
ATH490 athymic mice were vehicle -treated (Sham) or treated with indicated compounds
and doses for 30 da ys , followed by harvesting liver ( and other o r gans ; Fi g. 7d) for an al ysis of
their toxic effects . […] ( b) Blood sera w erecollected from mice
treated with indicated compounds and doses, and then examinedthe levels of ALT and AST to
gain insight into liver toxicity.
All values ar e present ed as mean±S.E .M.

purified porcine tubulin [4] = molecular target: T1, purified porcine tubulin; assay: In vitro microtubule assembly (light scattering) assay; assay type: biochemical; conditions: 3 µmol/L CTR-17, 1 µmol/L CTR-20; 340 nm, one hour, 37 °C
Method: Figure 5 CTRs inhibited microtubule polymerization by binding to tubulin through the colchicine-binding pocket. (a) CTRs inhibited microtubule polymerization in a similar manner to that of nocodazole. Purified porcine tubulin and 1.0 mmol/L GTP were added to reaction mixture (37 °C) containing 10 µmol/L paclitaxel (Tax), 3 µmol/L CTR-17, 1 µmol/L CTR-20, or 5 µmol/L nocodazole (Noco). Polymerization of microtubule was monitored every minute for one hour at 340 nm by spectrophotometry. Note that G-PEM buffer contains 400 µg of purified tubulin. (b) CTR-20 (and CTR-17; Supplementary Fig. S12) bound tubulin. CTR-20 quenched the intrinsic tryptophan fluorescence of tubulin in a dose-dependent manner. The changes in fluorescence intensity (∆F) were plotted against drug concentrations to determine the dissociation constant. […] CTR-20 (and CTR-17; Supplementary Fig. S12) depressed the fluorescence of the colchicine-tubulin complex in a dose-dependent manner. The fluorescence intensity of the final tubulin complex was used to determine the inhibitory concentration (Ki) using a modified Dixon plot. The fluorescence intensity was normalized by subtracting any intrinsic fluorescence of CTR-20 at given doses from that of the complex. “F” is the fluorescence of the CTR-colchicine-tubulin complex, and “F0” is the fluorescence of the colchicine-tubulin complex. […]

KB-C-2 [5] = assay: SRB cell viability, MDR1-overexpressing cells; assay type: cell-based, human; conditions: KB-C-2 vs KB-C-1; Table S1
[6] = tested on: non-cancerous cells (MCF 10A and 184B5); assay: SRB cell viability, cancer vs non-cancer cells; assay type: cell-based; conditions: cancer cells vs MCF 10A and 184B5
Method: and MCF10AT1 cells were cultured in Dulbecco's Modified Eagle's Medium/Ham's Nutrient Mixture F-12 (DME/F12) supplemented with 10% (volume/volume) FBS , 100 μg/ml streptom ycin and 100 units/ml penicillin, antim ycotic solution, 0.5 μg/ml hydrocortisone, 10 ng/ml human epiderm al growth factor (hEGF) and 5 μg/ml insulin, whereas MCF10CA1a cell line was cultured in DM EM supplemented with 10% FBS (volume/volume). […]
Dr. Susan Cole (Queen’s Universit y, Kingston, Ontario, Canada). The pacl itaxel-resistant MDA-MB-231TaxR cell line was generated in house b y culturing MDA-MB-231 cells (purchased from ATCC and authen ticated ) in the gradual l y incr easi ng con centr ations of pacl itax el until the concentration reached to 100 nM. Cell line authentication was carried out by Genetica DNA Laboratories (Burlington, NC) using a short tandem repeat (STR) profiling method (March 2015; […]
as §2
as §4, with “Cell viability and proliferation were ex amined using a s ulforhodamine B (SRB) assa y as described previousl y (Hu et al., 2008). IC” for “IC”

KB-C-2 [7] = assay: SRB cell viability, MDR1-overexpressing cells; assay type: cell-based; conditions: Homo sapiens, KB-C2; KB-C-2 MDR1-overexpressing cells
Method: (§6) human epidermoid carcinoma cell line and KB-C2, an isogenic MDR1- overexpressing drug-resistant cell line, were kindl y provided b y Dr. Amit K Tiwari, the Universit y of Toledo, OH. […]
as §1, §2, §3, §4, §5

KB-C-1 = assay: SRB cell viability, parental cells; assay type: cell-based; conditions: Homo sapiens, KBC-1; parental KB-C-1
Method: as §6, §1, §2, §3, §4, §5

| Compound | Resistance (fold) (H69AR; H69AR vs SW-1271, Table S1) | IC50 (H69AR) | side effects (changes in body and organ weights) [1] | Kd (purified porcine tubulin [2]) | ALT [3] | AST [3] | effect on microtubule polymerization (purified porcine tubulin [4]) | Resistance (fold) (KB-C-2 [5]) | killed cancer cells more effectively than non-cancerous cells [6] | IC50 (KB-C-2 [7]) | IC50 (KB-C-1) |
| --- | --- | --- | --- | --- | --- | --- | --- | --- | --- | --- | --- |
| COc1ccccc1C(=O)/C=C/c1cc2ccccc2[nH]c1=O [CTR-17, (E)-3-(3-(2-Methoxyphenyl)-3-oxoprop-1-enyl)quinolin-2(1H)-one] | 0.45 fold | 520 ± 100 nM | did not cause any notable side effects | 4580 ± 950 nM | 64.67± 5.26 IU/L | 114.13 ± 6.36 IU/L | inhibit microtubule polymerization | 1.71 fold | 20–26 folds | 650 ± 160 nM | 380 ± 70 nM |
| COc1ccc2[nH]c(=O)c(/C=C/C(=O)c3ccccc3OC)cc2c1 [CTR-20, (E)-6-Methoxy-3-(3-(2-methoxyphenyl)-3-oxoprop-1-enyl) quinolin-2(1H)-one] | – | 130 ± 10 nM | did not cause any notable side effects | 5090 ± 490 nM | 50.50± 9.96 IU/L | 118.22±17.00 IU/L | inhibit microtubule polymerization | 2.50 fold | 20–26 folds | 250 ± 30 nM | 100 ± 10 nM |
